From patent publication US20260008780A1, “SUBSTITUTED 3,4-DIHYDROISOQUINOLIN-1(2H)-ONE DERIVATIVES AND RELATED USES” (NodThera Limited, priority 2022, published 2026)
Structures can show the parent of a compound that is named as a salt.

Test system: IL-1β release upon NLRP3 activation in peripheral blood mononuclear cells (PBMC)
Experiment: PBMC IC50 Determination Assay
Type: cell-based
Conditions: Homo sapiens; PBMC from buffy coats, LPS 3 h, compound 30 min, then ATP (5 mM) or nigericin (10 μM) 1 h; IL-1β in media by ELISA (Protocol A) or HTRF (Protocol B)
Experimental: The compounds of the present disclosure were tested for their inhibitory activity against IL-1β release upon NLRP3 activation in peripheral blood mononuclear cells (PBMC).
Protocol A. PBMC were isolated from buffy coats by density gradient centrifugation on Histopaque-1077 (Sigma, cat no. 10771). Isolated cells were seeded into the wells of a 96-well plate and incubated for 3 h with lipopolysaccharide (LPS). Following medium exchange, the compounds of the present disclosure were added (a single compound per well) and the cells were incubated for 30 min. Next, the cells were stimulated either with ATP (5 mM) or nigericin (10 μM) for 1 h and the cell culture media from the wells were collected for further analysis.
The release of IL-1β into the media was determined by a quantitative detection of IL-1β in the media using an IL-1p enzyme-linked immunosorbent assay (ELISA) Ready-SET-Go!, eBioscience cat. No. 88-7261-88. Briefly, in a first step, high affinity binding plates (Corning, Costar 9018 or NUNC Maxisorp Cat No. 44-2404) were coated overnight at 4° C. with specific capture antibody included in the kit (anti-human IL-1β ref 14-7018-68). Subsequently, plates were blocked with blocking buffer for 1 h at room temperature (rt) and after washing with a buffer (PBS with 0.05% Tween-20) incubated with protein standard and culture media. After 2 h of incubation at rt, plates were washed and incubated with biotinylated detection antibody included in the kit (anti-human IL-1β Biotin ref. 33-7110-68) for 1 h at rt. Plates were washed and incubated with HRP-streptavidin for 30 min at rt and washed again. The signal was developed after addition of 3,3′,5,5′-tetramethylbenzidine-peroxidase (TMB) until colour appeared and the reaction was stopped by 2 M H2SO4. A microplate spectrophotometer (BioTek) was used to detect signals with 450 nm. The detection range of IL-1β ELISA was […].
Protocol B. PBMC were isolated from buffy coats by density gradient centrifugation on Histopaque-1077 (Sigma, cat no. 10771). Isolated cells were seeded into the wells (280,000 cells/well) of a 96-well plate and incubated for 3 h with lipopolysaccharide (LPS, 1 μg/mL diluted 1000× from a 1 mg/mL stock solution). The compounds of the present disclosure were added (a single compound per well) and the cells were incubated for 30 min. Next, the cells were stimulated with ATP (5 mM final concentration diluted 20× from a 100 mM stock solution) for 1 h and the cell culture media from the wells were collected for further analysis.
The release of IL-1β into the media was determined by quantitative detection of IL-1β in the media using HTRF®, CisBio cat. No. 62HIL1BPEH. Briefly, cell culture supernatant were dispensed directly into the assay plate containing antibodies labelled with the HTRF® donor and acceptor. A microplate spectrophotometer (BMG) was used to detect signals at 655 nm and 620 nm. The detection range of IL-1β HTRF® was 39-6500 μg/mL.

SMILES	IC50
CNc1nc2c(s1)C(=O)N(CC(=O)Nc1ncccn1)CC21CC1 [Compound 72, 2-(2′-(Methylamino)-4′-oxo-4′H-spiro[cyclopropane-1,7′-thiazolo[5,4-c]pyridin]-5′(6′H)-yl)-N-(pyrimidin-2-yl)acetamide]	3 to 10 µM
O=C(CN1CC2(CC2)n2c(cc3sc(Cl)cc32)C1=O)NC1CC2(COC2)C1 [Compound 4]	1 to 3 µM
CCc1cc2c(s1)C(=O)N(CC(=O)Nc1ccc(OC)nc1)CC21CC1 [Compound 48, 2-{2′-Ethyl-7′-oxo-6′,7′-dihydro-5′H-spiro[cyclopropane-1,4′-thieno[2,3-c]pyridin]-6′-yl}-N-(6-methoxypyridin-3-yl)acetamide]	3 to 10 µM
CCNc1cc2c(s1)C(=O)N(CC(=O)Nc1ncccn1)CC21CC1 [Compound 23, 2-(2′-(Ethylamino)-7′-oxo-5′H-spiro[cyclopropane-1,4′-thieno[2,3-c]pyridin]-6′(7′H)-yl)-N-(pyrimidin-2-yl)acetamide]	1 to 3 µM
CC1Cn2cccc2C(=O)N1CC(=O)N[C@@H]1CCCN(C2CC2)C1 (stereo partly drawn) [Compound 1, N-[(3R)-1-Cyclopropyl-3-piperidyl]-2-(3-methyl-1-oxo-3,4-dihydropyrrolo[1,2-a]pyrazin-2-yl)acetamide hydrochloride]	3 to 10 µM
CC(C)c1nc2c(s1)C(=O)N(CC(=O)Nc1ncccn1)CC21CC1 [Compound 12, 2-(2-Isopropyl-4-oxo-spiro[6H-thiazolo[5,4-c]pyridine-7,1′-cyclopropane]-5-yl)-N-pyrimidin-2-yl-acetamide]	3 to 10 µM
Cc1nc2c(cc3n2C(C)CN(CC(=O)Nc2ncccn2)C3=O)s1 (stereo not shown) [Compound 41]	10 to 50 µM
